Assay results published in ChEMBL document CHEMBL3864145, “Synthesis and biological evaluation of crown ether acyl derivatives” (Bioorg Med Chem Lett, 2016).
≈ marks a conversion by molar mass, not a printed value.

Columns and labels:
[1] = system: Candida albicans; assay: Antifungal activity against Candida albicans ATCC 90028 at 50 uM after 48 hrs by UV/Vis spectrophotometer relative to control; assay type: functional; settings: ATCC 90028, 48 h
[2] = system: Staphylococcus aureus; assay: Antibacterial activity against Staphylococcus aureus ATCC 25923 at 50 uM after 24 hrs by UV/Vis spectrophotometer relative to control; assay type: functional; settings: ATCC 25923, 24 h
[3] = Cytotoxicity against human HBL100 cells assessed as growth inhibition after 48 hrs by SRB assay; assay type: functional; settings: HBL-100, 48 h
[4] = Cytotoxicity against human HeLa cells assessed as growth inhibition after 48 hrs by SRB assay; assay type: functional
[5] = Cytotoxicity against human WiDr cells assessed as growth inhibition after 48 hrs by SRB assay; assay type: functional
[6] = Cytotoxicity against telomerase-immortalized human BJ cells assessed as growth inhibition after 48 hrs by SRB assay; assay type: toxicity, cell-based
[7] = system: Enterococcus faecalis; assay: Antibacterial activity against Enterococcus faecalis ATCC 29212 at 50 uM after 24 hrs by UV/Vis spectrophotometer relative to control; assay type: functional; settings: ATCC 29212, 24 h
[8] = system: Escherichia coli; assay: Antibacterial activity against Escherichia coli ATCC 25922 at 50 uM after 24 hrs by UV/Vis spectrophotometer relative to control; assay type: functional; settings: ATCC 25922, 24 h
[9] = Cytotoxicity against human SW1573 cells assessed as growth inhibition after 48 hrs by SRB assay; assay type: functional; settings: SW1573, 48 h
[10] = system: Staphylococcus aureus; assay: Antibacterial activity against Staphylococcus aureus ATCC 25923 by broth microdilution method; assay type: functional
[11] = Ratio of MIC50 for Staphylococcus aureus ATCC 25923 to GI50 for human HeLa cells; assay type: functional
[12] = Ratio of MIC50 for Staphylococcus aureus ATCC 25923 to GI50 for human WiDr cells; assay type: functional
[13] = Ratio of MIC50 for Staphylococcus aureus ATCC 25923 to GI50 for human HBL100 cells; assay type: functional, HBL-100
[14] = Ratio of MIC50 for Staphylococcus aureus ATCC 25923 to GI50 for human SW1573 cells; assay type: functional
[15] = system: Candida albicans; assay: Antifungal activity against Candida albicans ATCC 90028 by broth microdilution method; assay type: functional

SMILES	inhibition at 50 µM [1]	inhibition at 50 µM [2]	GI50 [3]	GI50 [4]	GI50 [5]	GI50 at 48 h [6]	inhibition at 50 µM [7]	inhibition at 50 µM [8]	GI50 [9]	MIC50 [10]	MIC90 [10]	Ratio [11]	Ratio [12]	Ratio [13]	Ratio [14]	MIC90 [15]	MIC50 [15]
CC1(C(=O)OCC2COCCOCCOCCOCCOCCO2)c2ccccc2-c2ccccc21 (stereo unspecified)	0%	0%	11 µM	12 µM	12 µM	18 µM	0%	0.1%	8.8 µM								
O=C(OCC1COCCOCCOCCOCCOCCO1)c1cccnc1 (stereo unspecified)	24%	0%	> 100 µM	> 100 µM	> 100 µM		6.8%	6.2%	> 100 µM								
O=C(CCCCc1ccccc1)OCC1COCCOCCOCCOCCOCCO1 (stereo unspecified)	5.5%	0%	69 µM	52 µM	> 100 µM		0.3%	5%	> 100 µM								
O=C(OCC1COCCOCCOCCOCCOCCO1)c1cccc(-c2ccc(Br)cc2)c1 (stereo unspecified)	1%	98%	6.4 µM	7.8 µM	6.2 µM	8.2 µM	0%	6.5%	4.4 µM	6.8 µg/mL	25 µM						
O=C(/C=C/c1ccccc1)OCC1COCCOCCOCCOCCOCCO1 (stereo unspecified)	36.7%	3.4%	57 µM	48 µM	> 100 µM		3.3%	5.9%	48 µM								
O=C(CCCCOc1ccccc1)OCC1COCCOCCOCCOCCOCCO1 (stereo unspecified)	1.6%	0%	> 100 µM	> 100 µM	> 100 µM		3.5%	8.1%	> 100 µM								
CC(=O)OCC1COCCOCCOCCOCCOCCO1 (stereo unspecified)			> 100 µM	> 100 µM	> 100 µM				> 100 µM								
O=C(O)c1cn(C2CC2)c2cc(N3CCNCC3)c(F)cc2c1=O [CIPROFLOXACIN]											0.5 µg/mL						
O=C(CCCCC1CCCCC1)OCC1COCCOCCOCCOCCOCCO1 (stereo unspecified)	0%	61%	72 µM	71 µM	33 µM		0%	0%	51 µM								
COc1cc([C@@H]2c3cc4c(cc3[C@@H](O[C@@H]3O[C@@H]5CO[C@@H](C)O[C@H]5[C@H](O)[C@H]3O)[C@H]3COC(=O)[C@H]23)OCO4)cc(OC)c1O [ETOPOSIDE]			1.4 µM	3.3 µM	23 µM				15 µM								
O=C(OCC1COCCOCCOCCOCCOCCO1)c1c2ccccc2cc2ccccc12 (stereo unspecified)	4.3%	98%	5 µM	3.7 µM	5.6 µM	5.4 µM	0%	7.8%	3.8 µM	11.1 µg/mL	50 µM	4	4	4	4		
O=C(CCCCCCCCCCOc1ccccc1)OCC1COCCOCCOCCOCCOCCO1 (stereo unspecified)	101%	29%	20 µM	41 µM	66 µM	24 µM	2.1%	0%	24 µM							36 µM	
COc1ccc(/C=C/C(=O)OCC2COCCOCCOCCOCCOCCO2)cc1 (stereo unspecified)	0%	0%	50 µM	56 µM	56 µM	> 100 µM	0%	7.3%	54 µM								
O=C(CCCCCc1ccccc1)OCC1COCCOCCOCCOCCOCCO1 (stereo unspecified)	11%	0%	64 µM	79 µM	> 100 µM		0%	5.8%	78 µM								
CC/C=C/CC(=O)OCC1COCCOCCOCCOCCOCCO1 (stereo unspecified)	9.4%	6.9%	> 100 µM	> 100 µM	> 100 µM		4.7%	4.3%	> 100 µM								
O=C(CCCCC1CCCCC1)OCC1COCCOCCOCCOCCO1 (stereo unspecified)	0%	0%	> 100 µM	> 100 µM	> 100 µM		0%	3.1%	> 100 µM								
O=C(CCc1ccc2ccc3cccc4ccc1c2c34)OCC1COCCOCCOCCOCCOCCO1 (stereo unspecified)	101%	99%	21 µM	17 µM	19 µM	19 µM	0%	0%	18 µM	7.2 µM	8.3 µM					42 µM	20.1 µg/mL (≈ 36.5 µM)
O=C(CCCCC1CCCCC1)OCC1COCCOCCOCCO1 (stereo unspecified)	0%	0%	> 100 µM	> 100 µM	> 100 µM		0%	4.9%	> 100 µM								
O=C(CCCc1cc2ccccc2[nH]1)OCC1COCCOCCOCCOCCOCCO1 (stereo unspecified)			> 100 µM	> 100 µM	> 100 µM				> 100 µM								
CC(C)=CC1C(C(=O)OCC2COCCOCCOCCOCCOCCO2)C1(C)C (stereo unspecified)	0%	0%	40 µM	63 µM	56 µM	> 100 µM	0%	0%	54 µM								
O=C(Cc1cccc(OCc2ccccc2)c1)OCC1COCCOCCOCCOCCOCCO1 (stereo unspecified)	0%	0%	29 µM	35 µM	24 µM	22 µM	0%	3.6%	36 µM								
C[C@@H]1[C@H](O)[C@@H](C)/C=C/C=C/C=C/C=C/C=C/C=C/C=C/[C@H](O[C@@H]2O[C@H](C)[C@@H](O)[C@H](N)[C@@H]2O)C[C@@H]2O[C@](O)(C[C@@H](O)C[C@@H](O)[C@H](O)CC[C@@H](O)C[C@@H](O)CC(=O)O[C@H]1C)C[C@H](O)[C@H]2C(=O)O [AMPHOTERICIN B]																0.5 µg/mL	
